Data as given in US20230014181A1, “CULTURE SYSTEM AND METHODS FOR IMPROVED MODELING OF NEUROLOGICAL CONDITIONS” (Genentech, Inc., priority 2021, published 2023).
Like-named read-outs stand apart in the source and are kept apart here.

Assays:
[1] = tested on: human iPSC neurons and astrocytes treated with 5 μM sAβ42s; assay: Focused small molecule screen, double culture (neuron, astrocyte), rescue from sAβ42s toxicity, high content imaging; assay type: cell-based; conditions: double culture, 5 μM sAβ42s; for percent rescue from sAβ42s toxicity at 25 µM / percent rescue from sAβ42s toxicity at 50 µM / percent rescue from sAβ42s toxicity at 6.25 µM / percent rescue from sAβ42s toxicity at 12.5 µM: Homo sapiens, iPSC
Description: (§1) FIGS. 11A-11D show synapse % rescue versus MAP2% rescue (FIGS. 11A-11B) and beta III tubulin % rescue versus MAP2% rescue (FIGS. 11C-11D), in neurons and astrocytes (FIGS. 11A and 11C) or neurons, astrocytes, and microglia (FIGS. 11B and 11D) treated with 5 μM sAβ42s and small molecules from a focused screen of known neuroprotective agents at multiple concentrations (50 μM, 25 μM, 12.5 μM and 6.25 μM (double culture), 50 μM, 12.5 μM, 3.1 μM and 0.78 μM (triple culture). Small molecules that prevented toxicity in dendrites (MAP2), synapses (Synapsin 1/2), cell count (CUX2), or axons ([…]) at or above 30% were considered hits (red dotted line).
Neurons from both NSC lines were evaluated by immunofluorescence staining. Briefly, cells were fixed with 4% PFA and 4% sucrose at room temperature for 20 minutes using Bravo automation. Fixed cells were then washed 2 times with PBS using Biotek 406 microplate washer (Beckman Coulter), followed by permeabilization and blocking by incubation with a solution containing 1×PBS, 0.1% Triton X-100, 2% donkey serum, and 1% BSA at room temperature for 30 minutes. Blocking solution was removed and cells were incubated with primary antibodies in blocking solution overnight at 4° C. After washing 6 times with PBS on Biotek 406 cell plate washer (Beckman Coulter), cells were then incubated with fluorophore-conjugated secondary antibodies for 1 hour at room temperature in the dark to avoid photobleaching. Cells were then washed 6 more times in with PBS before imaging. Fluorescent images were captured using IN Cell 6000 confocal microscope (GE Healthcare Life Sciences). The image analysis was performed with IN Cell 6000 analysis software.
Prior to experimentation, media volume in wells containing neurons was equalized with liquid handling automation (Bravo) in order to ensure precise control of concentrations. All Aβ42 oligomers, anti-Aβ, small molecules, inflammatory cytokines were prepared at 10× concentration and added to Neuronal Culture Media at an appropriate volume. For the repeated dosing experiments, the media were refreshed 50% at each dosing first, before adding Aβ42 oligomers, and/or anti-Aβ antibody at the specified final concentration.
(§2) In double (neuron, astrocyte) and triple (neuron, astrocyte, microglia) cultures, each small molecule listed in Table 1 was tested in the AD model paradigm at up to four concentrations. Molecules that characterized ≥30% rescue in any of the four measurements of dendrites area (MAP2), synapses count (synapsin 1/2), or cell count (CUX2), or axon area (Beta III Tubulin; “BT3”)) were classified as hits (FIGS. 11A-11D, Table 2, and Table 3).

[2] = tested on: human iPSC neurons, astrocytes and microglia treated with 5 μM sAβ42s; assay: Focused small molecule screen, triple culture (neuron, astrocyte, microglia), rescue from sAβ42s toxicity; assay type: cell-based; conditions: for percent rescue from sAβ42s toxicity at 50 µM: Homo sapiens, iPSC
Description: as §1
Frozen cells were thawed and immediately seeded at a density of 8,000 cells/well of a 384-well plate onto 8-week old neuron-astrocyte co-culture in Microglia media (BrainPhys™ neuronal media (Stem Cell Technologies) supplemented with 1× B27 with vitamin A, 1×N2 Plus Media Supplement (R&D Systems), 20 ng/mL BDNF, 20 ng/mL GDNF, 1 mM creatine, 200 nM L-ascorbic acid, 1 μg/mL mouse laminin, 0.5 mM GlutaMAX™ (Thermofisher), 0.5× penicillin-streptomycin, 1× normocin, 5 ng/mL TGF-β, 100 ng/mL human IL-34, 1.5 μg/mL cholesterol, 1 ng/mL gondoic acid, 100 ng/mL oleic acid, 460 μM thioglycerol, 1× insulin-transferrin-selenium, 25 ng/mL rhM-CSF, 5.4 μg/mL human insulin solution).
as §2

[3] = 25 μM compound, read-out: % B3T rescue
[4] = 25 μM compound, read-out: % Cux2 rescue
[5] = 25 μM compound, read-out: % MAP2 rescue
[6] = 25 μM compound, read-out: % Synapse rescue
[7] = 50 μM compound, read-out: % B3T rescue
[8] = 50 μM compound, read-out: % Cux2 rescue
[9] = 50 μM compound, read-out: % MAP2 rescue
[10] = 50 μM compound, read-out: % Synapse rescue
[11] = 50.00 μM compound, read-out: % B3T rescue
[12] = 50.00 μM compound, read-out: % MAP2 rescue
[13] = 50.00 μM compound, read-out: % Synapse rescue

Compound: O=c1cc(-c2ccc(O)c(O)c2)oc2cc(O)cc(O)c12 [Luteolin]
- percent rescue from sAβ42s toxicity at 25 µM [1, 3]: 29%
- percent rescue from sAβ42s toxicity at 25 µM [1, 4]: 12%
- percent rescue from sAβ42s toxicity at 25 µM [1, 5]: 26%
- percent rescue from sAβ42s toxicity at 25 µM [1, 6]: 13%
- percent rescue from sAβ42s toxicity at 50 µM [1, 7]: 66%
- percent rescue from sAβ42s toxicity at 50 µM [1, 8]: 19%
- percent rescue from sAβ42s toxicity at 50 µM [1, 9]: 55%
- percent rescue from sAβ42s toxicity at 50 µM [1, 10]: 37%
- percent rescue from sAβ42s toxicity at 50 µM [2, 11]: 91%
- percent rescue from sAβ42s toxicity at 50 µM [2, 12]: 73%
- percent rescue from sAβ42s toxicity at 50 µM [2, 13]: 75%

Compound: O=C1NC(=O)c2c1c1c3ccccc3n3c1c1c2c2ccccc2n1C1CCC3O1 [SB 218078]
- % B3T rescue ([1]; 50 μM compound): 72%
- % Cux2 rescue ([1]; 50 μM compound): −39%
- % MAP2 rescue ([1]; 50 μM compound): −92%
- % Synapse rescue ([1]; 50 μM compound): −15%
- % B3T rescue ([2]; 0.78 μM compound): 38%
- % MAP2 rescue ([2]; 0.78 μM compound): 10%
- % Synapse rescue ([2]; 0.78 μM compound): 14%
- % B3T rescue ([2]; 50.00 μM compound): −11%
- % MAP2 rescue ([2]; 50.00 μM compound): 53%
- % Synapse rescue ([2]; 50.00 μM compound): 19%

Compound: C=C[C@@]1(C)CC(=O)[C@]2(O)[C@@]3(C)[C@@H](O)CCC(C)(C)[C@@H]3[C@H](OC(=O)CCN(C)C)[C@H](OC(C)=O)[C@@]2(C)O1.Cl [NKH 477]
- % B3T rescue ([1]; 6.25 μM compound): 38%
- % Cux2 rescue ([1]; 6.25 μM compound): 21%
- % MAP2 rescue ([1]; 6.25 μM compound): 39%
- % Synapse rescue ([1]; 6.25 μM compound): 7%
- % B3T rescue ([1]; 12.5 μM compound): 38%
- % Cux2 rescue ([1]; 12.5 μM compound): 24%
- % MAP2 rescue ([1]; 12.5 μM compound): 45%
- % Synapse rescue ([1]; 12.5 μM compound): 5%
- % B3T rescue ([1]; 25 μM compound): 35%
- % Cux2 rescue ([1]; 25 μM compound): 21%
- % MAP2 rescue ([1]; 25 μM compound): 43%
- % Synapse rescue ([1]; 25 μM compound): −4%
- % B3T rescue ([1]; 50 μM compound): 38%
- % Cux2 rescue ([1]; 50 μM compound): 45%
- % MAP2 rescue ([1]; 50 μM compound): 44%
- % Synapse rescue ([1]; 50 μM compound): −5%
- % B3T rescue ([2]; 3.13 μM compound): 42%
- % MAP2 rescue ([2]; 3.13 μM compound): 17%
- % Synapse rescue ([2]; 3.13 μM compound): 12%
- % B3T rescue ([2]; 12.50 μM compound): 49%
- % MAP2 rescue ([2]; 12.50 μM compound): 9%
- % Synapse rescue ([2]; 12.50 μM compound): 8%
- % B3T rescue ([2]; 50.00 μM compound): 81%
- % MAP2 rescue ([2]; 50.00 μM compound): 53%
- % Synapse rescue ([2]; 50.00 μM compound): 38%

Compound: O=C1NC(=O)C(c2ccccc2[N+](=O)[O-])=C1Nc1ccc(O)c(Cl)c1 [SB 415286]
- % B3T rescue ([1]; 50 μM compound): 39%
- % Cux2 rescue ([1]; 50 μM compound): −13%
- % MAP2 rescue ([1]; 50 μM compound): 19%
- % Synapse rescue ([1]; 50 μM compound): 12%
- % B3T rescue ([2]; 50.00 μM compound): 78%
- % MAP2 rescue ([2]; 50.00 μM compound): 42%
- % Synapse rescue ([2]; 50.00 μM compound): 40%

Compound: O=C1Nc2ccc3ncsc3c2/C1=C/Nc1ccc(S(=O)(=O)Nc2ccccn2)cc1 [GW8510]
- % B3T rescue ([1]; 6.25 μM compound): 32%
- % Cux2 rescue ([1]; 6.25 μM compound): −1%
- % MAP2 rescue ([1]; 6.25 μM compound): 48%
- % Synapse rescue ([1]; 6.25 μM compound): 52%
- % B3T rescue ([1]; 12.5 μM compound): 20%
- % Cux2 rescue ([1]; 12.5 μM compound): 16%
- % MAP2 rescue ([1]; 12.5 μM compound): 37%
- % Synapse rescue ([1]; 12.5 μM compound): 38%
- % B3T rescue ([1]; 25 μM compound): 31%
- % Cux2 rescue ([1]; 25 μM compound): −18%
- % MAP2 rescue ([1]; 25 μM compound): 37%
- % Synapse rescue ([1]; 25 μM compound): 38%
- % B3T rescue ([1]; 50 μM compound): 47%
- % Cux2 rescue ([1]; 50 μM compound): −22%
- % MAP2 rescue ([1]; 50 μM compound): 52%
- % Synapse rescue ([1]; 50 μM compound): 49%
- % B3T rescue ([2]; 0.78 μM compound): 45%
- % MAP2 rescue ([2]; 0.78 μM compound): −4%
- % Synapse rescue ([2]; 0.78 μM compound): 8%
- % B3T rescue ([2]; 3.13 μM compound): 70%
- % MAP2 rescue ([2]; 3.13 μM compound): 15%
- % Synapse rescue ([2]; 3.13 μM compound): 25%
- % B3T rescue ([2]; 12.50 μM compound): 68%
- % MAP2 rescue ([2]; 12.50 μM compound): 28%
- % Synapse rescue ([2]; 12.50 μM compound): 32%
- % B3T rescue ([2]; 50.00 μM compound): 63%
- % MAP2 rescue ([2]; 50.00 μM compound): −8%
- % Synapse rescue ([2]; 50.00 μM compound): −15%

Compound: CN(C)S(=O)(=O)c1ccc2c(c1)/C(=C/c1cc3c([nH]1)CCCC3)C(=O)N2 [SU6656]
- % B3T rescue ([1]; 6.25 μM compound): 4%
- % Cux2 rescue ([1]; 6.25 μM compound): 101%
- % MAP2 rescue ([1]; 6.25 μM compound): 5%
- % Synapse rescue ([1]; 6.25 μM compound): 13%
- % B3T rescue ([1]; 12.5 μM compound): 3%
- % Cux2 rescue ([1]; 12.5 μM compound): 120%
- % MAP2 rescue ([1]; 12.5 μM compound): 4%
- % Synapse rescue ([1]; 12.5 μM compound): 11%
- % B3T rescue ([1]; 25 μM compound): −37%
- % Cux2 rescue ([1]; 25 μM compound): 126%
- % MAP2 rescue ([1]; 25 μM compound): 3%
- % Synapse rescue ([1]; 25 μM compound): 15%
- % B3T rescue ([1]; 50 μM compound): −188%
- % Cux2 rescue ([1]; 50 μM compound): 106%
- % MAP2 rescue ([1]; 50 μM compound): 3%
- % Synapse rescue ([1]; 50 μM compound): 11%
- % B3T rescue ([2]; 0.78 μM compound): 80%
- % MAP2 rescue ([2]; 0.78 μM compound): 58%
- % Synapse rescue ([2]; 0.78 μM compound): 51%
- % B3T rescue ([2]; 3.13 μM compound): 92%
- % MAP2 rescue ([2]; 3.13 μM compound): 72%
- % Synapse rescue ([2]; 3.13 μM compound): 64%
- % B3T rescue ([2]; 12.50 μM compound): 71%
- % MAP2 rescue ([2]; 12.50 μM compound): 53%
- % Synapse rescue ([2]; 12.50 μM compound): 49%
- % B3T rescue ([2]; 50.00 μM compound): 48%
- % MAP2 rescue ([2]; 50.00 μM compound): 40%
- % Synapse rescue ([2]; 50.00 μM compound): 36%

Compound: CCCC[C@@H](C=O)NC(=O)[C@H](CC(C)C)NC(=O)OCc1ccccc1 [Calpeptin]
- percent rescue from sAβ42s toxicity at 6.25 µM ([1]; 6.25 μM compound, read-out: % B3T rescue): 9%
- percent rescue from sAβ42s toxicity at 6.25 µM ([1]; 6.25 μM compound, read-out: % Cux2 rescue): 70%
- percent rescue from sAβ42s toxicity at 6.25 µM ([1]; 6.25 μM compound, read-out: % MAP2 rescue): 22%
- percent rescue from sAβ42s toxicity at 6.25 µM ([1]; 6.25 μM compound, read-out: % Synapse rescue): 6%
- percent rescue from sAβ42s toxicity at 12.5 µM ([1]; 12.5 μM compound, read-out: % B3T rescue): 4%
- percent rescue from sAβ42s toxicity at 12.5 µM ([1]; 12.5 μM compound, read-out: % Cux2 rescue): 79%
- percent rescue from sAβ42s toxicity at 12.5 µM ([1]; 12.5 μM compound, read-out: % MAP2 rescue): 27%
- percent rescue from sAβ42s toxicity at 12.5 µM ([1]; 12.5 μM compound, read-out: % Synapse rescue): 11%
- percent rescue from sAβ42s toxicity at 25 µM [1, 3]: 7%
- percent rescue from sAβ42s toxicity at 25 µM [1, 4]: 91%
- percent rescue from sAβ42s toxicity at 25 µM [1, 5]: 39%
- percent rescue from sAβ42s toxicity at 25 µM [1, 6]: 9%
- percent rescue from sAβ42s toxicity at 50 µM [1, 7]: 20%
- percent rescue from sAβ42s toxicity at 50 µM [1, 8]: 96%
- percent rescue from sAβ42s toxicity at 50 µM [1, 9]: 36%
- percent rescue from sAβ42s toxicity at 50 µM [1, 10]: 15%
- percent rescue from sAβ42s toxicity at 50 µM [2, 11]: 66%
- percent rescue from sAβ42s toxicity at 50 µM [2, 12]: 34%
- percent rescue from sAβ42s toxicity at 50 µM [2, 13]: 34%
